Values joined by “and” are separate entries in the source; they are usually repeats but may differ in a detail not shown here. Equal entries are not always repeated. Toxic doses and inconclusive results are not listed. Rule for the calls: active = survival T/C of 150% or more; inactive = T/C below 125% in these data.
System: CD2F1 mice, L1210 leukemia ip, survival T/C
Assay: NCI In Vivo Anticancer Drug Screen. Data for tumor model L1210 Leukemia (intraperitoneal) in CD2F1 (CDF1) mice
Conditions: higher = longer survival
Summary of the method: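 Implant tumor; dose compound or vehicle; measure endpoint in both groups; report treated divided by control.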

[1] = endpoint: mean survival time, dose: 100.0 mg/kg/injection, schedule: Q01DX009 (ip), vehicle: saline with Tween-80
[2] = endpoint: mean survival time, dose: 100.0 mg/kg/injection, schedule: Q04DX003 (ip), vehicle: saline with Tween-80
[3] = endpoint: mean survival time, dose: 200.0 mg/kg/injection, schedule: Q01DX009 (ip), vehicle: saline with Tween-80
[4] = endpoint: mean survival time, dose: 200.0 mg/kg/injection, schedule: Q04DX003 (ip), vehicle: saline with Tween-80
[5] = endpoint: mean survival time, dose: 400.0 mg/kg/injection, schedule: Q01DX009 (ip), vehicle: saline with Tween-80
[6] = endpoint: mean survival time, dose: 400.0 mg/kg/injection, schedule: Q04DX003 (ip), vehicle: saline with Tween-80
[7] = endpoint: mean survival time, dose: 25.0 mg/kg/injection, schedule: Q01DX009 (ip), vehicle: saline with Tween-80
[8] = endpoint: mean survival time, dose: 25.0 mg/kg/injection, schedule: Q04DX003 (ip), vehicle: saline
[9] = endpoint: mean survival time, dose: 50.0 mg/kg/injection, schedule: Q01DX009 (ip), vehicle: saline with Tween-80
[10] = endpoint: mean survival time, dose: 50.0 mg/kg/injection, schedule: Q04DX003 (ip), vehicle: saline
[11] = endpoint: mean survival time, dose: 100.0 mg/kg/injection, schedule: Q04DX003 (ip), vehicle: saline
[12] = endpoint: mean survival time, dose: 100.0 mg/kg/injection, schedule: Q01DX009 (ip), vehicle: Klucel (hydroxypropylcellulose) (HPC)
[13] = endpoint: mean survival time, dose: 200.0 mg/kg/injection, schedule: Q01DX009 (ip), vehicle: Klucel (hydroxypropylcellulose) (HPC)
[14] = endpoint: mean survival time, dose: 400.0 mg/kg/injection, schedule: Q01DX009 (ip), vehicle: Klucel (hydroxypropylcellulose) (HPC)
[15] = endpoint: median survival time, dose: 25.0 mg/kg/injection, schedule: Q01DX009 (ip), vehicle: Klucel (hydroxypropylcellulose) (HPC)
[16] = endpoint: mean survival time, dose: 100.0 mg/kg/injection, schedule: Q01DX001 (ip), vehicle: saline with Tween-80
[17] = endpoint: mean survival time, dose: 200.0 mg/kg/injection, schedule: Q01DX001 (ip), vehicle: saline with Tween-80

Measured: T/C

C=C1C(=O)C2=CC1CCC(=O)C1(C)CCC(OC(C)=O)C(C)(C)C1CC2O (stereo not given)
inactive: endpoint: mean survival time, dose: 3.75 mg/kg/injection, schedule: Q01DX009 (ip), vehicle: Klucel (hydroxypropylcellulose) (HPC) 97 % of control | endpoint: mean survival time, dose: 7.5 mg/kg/injection, schedule: Q01DX009 (ip), vehicle: Klucel (hydroxypropylcellulose) (HPC) 98 % of control and 100 % of control | endpoint: mean survival time, dose: 15.0 mg/kg/injection, schedule: Q01DX009 (ip), vehicle: Klucel (hydroxypropylcellulose) (HPC) 95 % of control and 98 % of control | endpoint: mean survival time, dose: 30.0 mg/kg/injection, schedule: Q01DX009 (ip), vehicle: Klucel (hydroxypropylcellulose) (HPC) 98 % of control and 101 % of control | endpoint: mean survival time, dose: 60.0 mg/kg/injection, schedule: Q01DX009 (ip), vehicle: Klucel (hydroxypropylcellulose) (HPC) 95 % of control and 96 % of control | endpoint: mean survival time, dose: 120.0 mg/kg/injection, schedule: Q01DX009 (ip), vehicle: Klucel (hydroxypropylcellulose) (HPC) 89 % of control

O=C(O)C1CCCCC1C(=O)O.[NH-]C1CCC1.[NH2-].[Pt+2] (stereo not given)
inactive: endpoint: median survival time, dose: 3.12 mg/kg/injection, schedule: Q04DX003 (ip), vehicle: distilled water + Tween-80 107 % of control | endpoint: median survival time, dose: 6.25 mg/kg/injection, schedule: Q04DX003 (ip), vehicle: distilled water + Tween-80 102 % of control | endpoint: median survival time, dose: 12.5 mg/kg/injection, schedule: Q04DX003 (ip), vehicle: distilled water + Tween-80 106 % of control | endpoint: median survival time, dose: 25.0 mg/kg/injection, schedule: Q04DX003 (ip), vehicle: distilled water + Tween-80 102 % of control | endpoint: median survival time, dose: 50.0 mg/kg/injection, schedule: Q04DX003 (ip), vehicle: distilled water + Tween-80 103 % of control

CC1(C)/C(=C/c2ccccc2)C(=O)c2ccccc21
inactive: [1] 100 % of control | [2] 102 % of control | [3] 100 % of control | [4] 92 % of control | [5] 94 % of control | [6] 102 % of control

N#CCc1ccc(N=Nc2c(N)nc(N)nc2N)cc1
inactive: [2] 92 % of control | [4] 104 % of control | [6] 101 % of control

CCN(CC)CCNC1CCCCC1
inactive: [7] 96 % of control | [8] 97 % of control | [9] 96 % of control | [10] 100 % of control | [1] 96 % of control | [11] 94 % of control

O=C(N/N=C/c1ccccc1)c1ccc(Cl)cc1Cl
inactive: endpoint: mean survival time, dose: 100.0 mg/kg/injection, schedule: Q01DX001 (ip), vehicle: Klucel (hydroxypropylcellulose) (HPC) 100 % of control | [12] 100 % of control | endpoint: mean survival time, dose: 200.0 mg/kg/injection, schedule: Q01DX001 (ip), vehicle: Klucel (hydroxypropylcellulose) (HPC) 97 % of control | [13] 94 % of control | endpoint: mean survival time, dose: 400.0 mg/kg/injection, schedule: Q01DX001 (ip), vehicle: Klucel (hydroxypropylcellulose) (HPC) 101 % of control | [14] 91 % of control

CCSC1CCS(=O)(=O)C1 (stereo not given)
inactive: [9] 93 % of control | [1] 93 % of control | [3] 97 % of control

O=c1[nH]cnc2c1cnn2CN1CCOCC1
inactive: [15] 106 % of control | endpoint: median survival time, dose: 50.0 mg/kg/injection, schedule: Q01DX009 (ip), vehicle: Klucel (hydroxypropylcellulose) (HPC) 106 % of control | endpoint: median survival time, dose: 100.0 mg/kg/injection, schedule: Q01DX009 (ip), vehicle: Klucel (hydroxypropylcellulose) (HPC) 110 % of control | endpoint: median survival time, dose: 200.0 mg/kg/injection, schedule: Q01DX009 (ip), vehicle: Klucel (hydroxypropylcellulose) (HPC) 114 % of control

COc1cc(-c2[o+]c3cc(O)cc(O)c3cc2OC2OC(CO)C(O)C(O)C2O)cc(OC)c1O (stereo not given)
inactive: [7] 94 % of control | [9] 96 % of control | [1] 96 % of control

O=C(O)NNC(=O)NO
inactive: endpoint: mean survival time, dose: 100.0 mg/kg/injection, schedule: Q01DX009 (ip), vehicle: saline sonified 97 % of control | endpoint: mean survival time, dose: 200.0 mg/kg/injection, schedule: Q01DX009 (ip), vehicle: saline sonified 103 % of control | endpoint: mean survival time, dose: 400.0 mg/kg/injection, schedule: Q01DX009 (ip), vehicle: saline sonified 101 % of control

Nc1ccc2ccccc2c1N=Nc1ccccc1
inactive: endpoint: mean survival time, dose: 50.0 mg/kg/injection, schedule: Q01DX009 (ip), vehicle: Klucel (hydroxypropylcellulose) (HPC) 106 % of control | [12] 112 % of control | [13] 113 % of control | [14] 103 % of control

CCCCCCCCCCCCCCCC(=O)Nc1ccc(CC)cc1
inactive: endpoint: mean survival time, dose: 100.0 mg/kg/injection, schedule: Q04DX002 (ip), vehicle: saline with Tween-80 103 % of control | endpoint: mean survival time, dose: 200.0 mg/kg/injection, schedule: Q04DX002 (ip), vehicle: saline with Tween-80 91 % of control | endpoint: mean survival time, dose: 400.0 mg/kg/injection, schedule: Q04DX002 (ip), vehicle: saline with Tween-80 95 % of control

OC(CCc1ccccc1)(C(F)(F)F)C(F)(F)F
inactive: endpoint: mean survival time, dose: 100.0 mg/kg/injection, schedule: Q04DX003 (ip), vehicle: Klucel (hydroxypropylcellulose) (HPC) 92 % of control | endpoint: mean survival time, dose: 200.0 mg/kg/injection, schedule: Q04DX003 (ip), vehicle: Klucel (hydroxypropylcellulose) (HPC) 95 % of control | endpoint: mean survival time, dose: 400.0 mg/kg/injection, schedule: Q04DX003 (ip), vehicle: Klucel (hydroxypropylcellulose) (HPC) 97 % of control

C[N+](C)(C)C.[Cl-].[Cl-].[Cl][Sn]([Cl])[Cl].[Cl][Sn]([Cl])[Cl].[Ru+]
inactive: endpoint: mean survival time, dose: 25.0 mg/kg/injection, schedule: Q04DX002 (ip), vehicle: saline with Tween-80 107 % of control | endpoint: mean survival time, dose: 50.0 mg/kg/injection, schedule: Q04DX002 (ip), vehicle: saline with Tween-80 96 % of control

O=S(=O)(c1cccc(N=C=S)c1)c1cccc(N=C=S)c1
inactive: endpoint: median survival time, dose: 6.25 mg/kg/injection, schedule: Q01DX009 (ip), vehicle: Klucel (hydroxypropylcellulose) (HPC) 101 % of control | endpoint: median survival time, dose: 12.5 mg/kg/injection, schedule: Q01DX009 (ip), vehicle: Klucel (hydroxypropylcellulose) (HPC) 109 % of control | [15] 118 % of control

CSC(SC)=C1C(=O)NC(=O)NC1=O
inactive: endpoint: median survival time, dose: 3.12 mg/kg/injection, schedule: Q01DX009 (ip), vehicle: saline 101 % of control | endpoint: median survival time, dose: 6.25 mg/kg/injection, schedule: Q01DX009 (ip), vehicle: saline 112 % of control | endpoint: median survival time, dose: 12.5 mg/kg/injection, schedule: Q01DX009 (ip), vehicle: saline 109 % of control | endpoint: median survival time, dose: 25.0 mg/kg/injection, schedule: Q01DX009 (ip), vehicle: saline 109 % of control | endpoint: median survival time, dose: 50.0 mg/kg/injection, schedule: Q01DX009 (ip), vehicle: saline 116 % of control

OC1CNCc2cc3c(cc21)OCO3 (stereo not given)
inactive: endpoint: mean survival time, dose: 100.0 mg/kg/injection, schedule: Q01DX001 (ip), vehicle: saline 107 % of control | endpoint: mean survival time, dose: 200.0 mg/kg/injection, schedule: Q01DX001 (ip), vehicle: saline 104 % of control

CCOC(=O)CCC1(C(=O)OC)C(=O)CCCCCCC1C(=O)OC (stereo not given)
inactive: [1] 102 % of control | [3] 101 % of control | [5] 93 % of control

CC(O)CNc1nc(N)[nH]c(=O)c1[N+](=O)[O-] (stereo not given)
inactive: [16] 94 % of control | [17] 89 % of control

COCCNP(=S)(OC)OC
inactive: [16] 100 % of control | [17] 101 % of control | endpoint: mean survival time, dose: 400.0 mg/kg/injection, schedule: Q01DX001 (ip), vehicle: saline with Tween-80 106 % of control

CN(C)CCOc1cccc(Br)c1
inactive: [8] 100 % of control | [10] 100 % of control | [11] 100 % of control

Nc1cc(Cl)c(Cl)cc1S(=O)(=O)NO
inactive: [2] 95 % of control | [6] 89 % of control

Source: PubChem BioAssay AID256 (DTP/NCI, 2004)
